Measured values: the supplement of paper PMC10307832

Key:
Test in all cases: relative viability (nuclei count vs DMSO), 5 days (fraction); higher = more cells survive
HOP-62 = system: HOP-62
Procedure, shortened: (§1)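 Relative viability divides the nuclei count in treated wells by that in vehicle wells. Lung cancer cell lines were seeded in 1536-well plates, dosed by pin tool the next day, and fixed and stained after 5 days in one step with final 0.05% Triton X-100, 1% formaldehyde and 1 ug/ml Hoechst. Dosing was a single drug or a fixed anchor-drug dose plus five library-drug doses (not always all listed) in √10 steps, and values are medians of duplicate plates imaged at 4×.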

ChaGo-K-1 = system: ChaGo-K-1
Procedure, shortened: as §1

COR-L23 = system: COR-L23
Procedure, shortened: as §1

ABC-1 = system: ABC-1
Procedure, shortened: as §1

EMC-BAC-2 = system: EMC-BAC-2
Procedure, shortened: as §1

NCI-H838 = system: NCI-H838
Procedure, shortened: as §1

NCI-H2126 = system: NCI-H2126
Procedure, shortened: as §1

NCI-H1993 = system: NCI-H1993
Procedure, shortened: as §1

SK-LU-1 = system: SK-LU-1
Procedure, shortened: as §1

HCC-366 = system: HCC-366
Procedure, shortened: as §1

NCI-H358 = system: NCI-H358
Procedure, shortened: as §1

NCI-H23 = system: NCI-H23
Procedure, shortened: as §1

NCI-H2023 = system: NCI-H2023
Procedure, shortened: as §1

NCI-H1944 = system: NCI-H1944
Procedure, shortened: as §1

HCC-78 = system: HCC-78
Procedure, shortened: as §1

NCI-H1793 = system: NCI-H1793
Procedure, shortened: as §1

NCI-H1395 = system: NCI-H1395
Procedure, shortened: as §1

NCI-H2228 = system: NCI-H2228
Procedure, shortened: as §1

NCI-H2405 = system: NCI-H2405
Procedure, shortened: as §1

HCC-15 = system: HCC-15
Procedure, shortened: as §1

HARA = system: HARA
Procedure, shortened: as §1

LC-2-ad = system: LC-2-ad
Procedure, shortened: as §1

COc1cc2nccc(Oc3ccc(NC(=O)Nc4cc(C)on4)c(Cl)c3)c2cc1OC [Tivozanib] + Cc1cc(Nc2cc(N3CCN(C)CC3)nc(Sc3ccc(NC(=O)C4CC4)cc3)n2)n[nH]1 [Tozasertib] (partner 0.1 µM)
relative viability (HOP-62; first compound 0.005 µM): 0.349 | relative viability (HOP-62; first compound 0.01581 µM): 0.384 | relative viability (HOP-62; first compound 0.05 µM): 0.422 | relative viability (HOP-62; first compound 0.1581 µM): 0.391 | relative viability (HOP-62; first compound 0.5 µM): 0.362 | relative viability (ChaGo-K-1; first compound 0.005 µM): 0.226 | relative viability (ChaGo-K-1; first compound 0.01581 µM): 0.247 | relative viability (ChaGo-K-1; first compound 0.05 µM): 0.216 | relative viability (ChaGo-K-1; first compound 0.1581 µM): 0.256 | relative viability (ChaGo-K-1; first compound 0.5 µM): 0.186 | relative viability (COR-L23; first compound 0.005 µM): 0.172 | relative viability (COR-L23; first compound 0.01581 µM): 0.218 | relative viability (COR-L23; first compound 0.05 µM): 0.363 | relative viability (COR-L23; first compound 0.1581 µM): 0.268 | relative viability (COR-L23; first compound 0.5 µM): 0.228 | relative viability (ABC-1; first compound 0.005 µM): 0.167 | relative viability (ABC-1; first compound 0.01581 µM): 0.185 | relative viability (ABC-1; first compound 0.05 µM): 0.188 | relative viability (ABC-1; first compound 0.1581 µM): 0.159 | relative viability (ABC-1; first compound 0.5 µM): 0.168 | relative viability (EMC-BAC-2; first compound 0.005 µM): 0.255 | relative viability (EMC-BAC-2; first compound 0.01581 µM): 0.3 | relative viability (EMC-BAC-2; first compound 0.05 µM): 0.295 | relative viability (EMC-BAC-2; first compound 0.1581 µM): 0.326 | relative viability (EMC-BAC-2; first compound 0.5 µM): 0.266 | relative viability (NCI-H838; first compound 0.005 µM): 0.268 | relative viability (NCI-H838; first compound 0.01581 µM): 0.291 | relative viability (NCI-H838; first compound 0.05 µM): 0.29 | relative viability (NCI-H838; first compound 0.5 µM): 0.291 | relative viability (NCI-H2126; first compound 0.005 µM): 0.804 | relative viability (NCI-H2126; first compound 0.01581 µM): 0.846 | relative viability (NCI-H2126; first compound 0.05 µM): 0.915 | relative viability (NCI-H2126; first compound 0.1581 µM): 0.667 | relative viability (NCI-H2126; first compound 0.5 µM): 0.857 | relative viability (NCI-H1993; first compound 0.005 µM): 0.559 | relative viability (NCI-H1993; first compound 0.01581 µM): 0.585 | relative viability (NCI-H1993; first compound 0.05 µM): 0.568 | relative viability (NCI-H1993; first compound 0.1581 µM): 0.485 | relative viability (NCI-H1993; first compound 0.5 µM): 0.513 | relative viability (SK-LU-1; first compound 0.005 µM): 0.332 | relative viability (SK-LU-1; first compound 0.01581 µM): 0.366 | relative viability (SK-LU-1; first compound 0.05 µM): 0.472 | relative viability (SK-LU-1; first compound 0.1581 µM): 0.357 | relative viability (SK-LU-1; first compound 0.5 µM): 0.335 | relative viability (HCC-366; first compound 0.005 µM): 0.094 | relative viability (HCC-366; first compound 0.01581 µM): 0.115 | relative viability (HCC-366; first compound 0.05 µM): 0.156 | relative viability (HCC-366; first compound 0.1581 µM): 0.137 | relative viability (HCC-366; first compound 0.5 µM): 0.111 | relative viability (NCI-H358; first compound 0.005 µM): 0.0936 | relative viability (NCI-H358; first compound 0.01581 µM): 0.101 | relative viability (NCI-H358; first compound 0.05 µM): 0.102 | relative viability (NCI-H358; first compound 0.1581 µM): 0.102 | relative viability (NCI-H358; first compound 0.5 µM): 0.108 | relative viability (NCI-H23; first compound 0.005 µM): 0.324 | relative viability (NCI-H23; first compound 0.01581 µM): 0.323 | relative viability (NCI-H23; first compound 0.05 µM): 0.547 | relative viability (NCI-H23; first compound 0.1581 µM): 0.406 | relative viability (NCI-H23; first compound 0.5 µM): 0.427 | relative viability (NCI-H2023; first compound 0.005 µM): 0.306 | relative viability (NCI-H2023; first compound 0.01581 µM): 0.324 | relative viability (NCI-H2023; first compound 0.05 µM): 0.405 | relative viability (NCI-H2023; first compound 0.1581 µM): 0.4 | relative viability (NCI-H2023; first compound 0.5 µM): 0.413 | relative viability (NCI-H1944; first compound 0.005 µM): 0.251 | relative viability (NCI-H1944; first compound 0.01581 µM): 0.245 | relative viability (NCI-H1944; first compound 0.05 µM): 0.257 | relative viability (NCI-H1944; first compound 0.1581 µM): 0.269 | relative viability (NCI-H1944; first compound 0.5 µM): 0.297 | relative viability (HCC-78; first compound 0.005 µM): 0.324 | relative viability (HCC-78; first compound 0.01581 µM): 0.472 | relative viability (HCC-78; first compound 0.05 µM): 0.347 | relative viability (HCC-78; first compound 0.1581 µM): 0.501 | relative viability (HCC-78; first compound 0.5 µM): 0.328 | relative viability (NCI-H1793; first compound 0.005 µM): 0.335 | relative viability (NCI-H1793; first compound 0.01581 µM): 0.45 | relative viability (NCI-H1793; first compound 0.05 µM): 0.392 | relative viability (NCI-H1793; first compound 0.1581 µM): 0.376 | relative viability (NCI-H1793; first compound 0.5 µM): 0.359 | relative viability (NCI-H1395; first compound 0.005 µM): 0.734 | relative viability (NCI-H1395; first compound 0.01581 µM): 0.738 | relative viability (NCI-H1395; first compound 0.05 µM): 0.81 | relative viability (NCI-H1395; first compound 0.1581 µM): 0.681 | relative viability (NCI-H1395; first compound 0.5 µM): 0.807 | relative viability (NCI-H2228; first compound 0.005 µM): 0.232 | relative viability (NCI-H2228; first compound 0.01581 µM): 0.235 | relative viability (NCI-H2228; first compound 0.05 µM): 0.25 | relative viability (NCI-H2228; first compound 0.1581 µM): 0.26 | relative viability (NCI-H2228; first compound 0.5 µM): 0.274 | relative viability (NCI-H2405; first compound 0.005 µM): 0.676 | relative viability (NCI-H2405; first compound 0.01581 µM): 0.753 | relative viability (NCI-H2405; first compound 0.05 µM): 0.841 | relative viability (NCI-H2405; first compound 0.1581 µM): 0.879 | relative viability (NCI-H2405; first compound 0.5 µM): 0.711 | relative viability (HCC-15; first compound 0.005 µM): 0.411 | relative viability (HCC-15; first compound 0.01581 µM): 0.419 | relative viability (HCC-15; first compound 0.05 µM): 0.496 | relative viability (HCC-15; first compound 0.1581 µM): 0.415 | relative viability (HCC-15; first compound 0.5 µM): 0.354 | relative viability (HARA; first compound 0.005 µM): 0.113 | relative viability (HARA; first compound 0.01581 µM): 0.107 | relative viability (HARA; first compound 0.05 µM): 0.112 | relative viability (HARA; first compound 0.1581 µM): 0.133 | relative viability (HARA; first compound 0.5 µM): 0.145 | relative viability (LC-2-ad; first compound 0.005 µM): 0.408 | relative viability (LC-2-ad; first compound 0.01581 µM): 0.486 | relative viability (LC-2-ad; first compound 0.05 µM): 0.484 | relative viability (LC-2-ad; first compound 0.1581 µM): 0.399 | relative viability (LC-2-ad; first compound 0.5 µM): 0.408
